Results on 24 compounds are retold here after patent US9447084B2, “Antiparisitic and pesticidal isoxazoline compounds” (MERIAL LIMITED, priority 2013, dated 2016).

SMILES strings stand for the structures.

The test system of the first experiment is Ctenocephalides felis. The experiment can be described thus: Efficacy of compounds against fleas following ingestion (membrane feeding on treated bovine blood). It counts as in vivo. Particulars: 10 adult Ctenocephalides felis feeding on treated bovine blood; assessment at 72 hours after application vs untreated controls. The procedure:
A cylindrical test container was filled with 10 adult Ctenocephalides felis. A cylindrical well was closed on one end with a self-sealing flexible film and placed on top of the test container in such a position that the fleas could pierce the film and feed on the contents of the cylinder. The test compound solution was then pipetted into bovine blood and added to the well. The container part with the Ctenocephalides felis was held at 20-22° C. and 40-60% relative humidity while the well part containing the treated blood was held at 37° C. and 40-60% relative humidity. Assessment was performed at 72 hours after application in comparison with untreated controls. […] In this regard, the efficacy of the compounds of the invention having at least one carbonyl group in Ring D against fleas was compared with the efficacy of corresponding compounds that are not substituted with a carbonyl group in Ring D using the method of Example 19.
On to `O=C1CN(C(=O)c2ccc(C3=NOC(c4cc(Cl)cc(C(F)(F)F)c4)(C(F)(F)F)C3)c3ccccc23)CN1CCC(F)(F)F` (stereo not drawn) [Compound 112, 1-[(4-[5-[3-chloro-5-(trifluoromethyl)phenyl]-5-(trifluoromethyl)-4,5-dihydro-1,2-oxazol-3-yl]naphthalen-1-yl)carbonyl]-3-(3,3,3-trifluoropropyl)imidazolidin-4-one], for which the concentration for a half-maximal effect (EC50) – broadly, the concentration that produces a half-maximal response – is no more than 0.1 µg/mL.

In turn, `Cc1cc(C2=NOC(c3cc(Cl)cc(C(F)(F)F)c3)(C(F)(F)F)C2)ccc1C(=O)N1CCN(CCC(F)(F)F)C1` (stereo not drawn) [Compound 100] came in with an EC50 of no more than 10 µg/mL. Same read-out and setting: with `Cc1cc(C2=NOC(c3cc(Cl)cc(C(F)(F)F)c3)(C(F)(F)F)C2)ccc1C(=O)N1CC(=O)N(CC(F)(F)F)C1` (stereo not drawn) [Compound 71, 1-[(4-[5-[3-chloro-5-(trifluoromethyl)phenyl]-5-(trifluoromethyl)-4,5-dihydro-1,2-oxazol-3-yl]-2-methylphenyl)carbonyl]-3-(2,2,2-trifluoroethyl)imidazolidin-4-one] the figure was no more than 0.1 µg/mL; with `Cc1cc(C2=NOC(c3cc(Cl)cc(C(F)(F)F)c3)(C(F)(F)F)C2)ccc1C(=O)NN1CCCN(CC(F)(F)F)C1=O` (stereo not drawn) [Compound 70], no more than 1 µg/mL; with `Cc1cc(C2=NOC(c3cc(Cl)cc(C(F)(F)F)c3)(C(F)(F)F)C2)ccc1C(=O)N1CC(=O)N(CS(C)(=O)=O)C1` (stereo not drawn) [Compound 114, 1-[(4-[5-[3-Chloro-5-(trifluoromethyl)phenyl]-5-(trifluoromethyl)-4,5-dihydro-1,2-oxazol-3-yl]-2-methylphenyl)carbonyl]-3-(methanesulfonylmethyl)imidazolidin-4-one], no more than 10 µg/mL. `Cc1cc(C2=NOC(c3cc(Cl)cc(C(F)(F)F)c3)(C(F)(F)F)C2)ccc1C(=O)N1CC(=O)N(CCC(F)(F)F)C1` (stereo not drawn) [Compound 80, 1-[(4-[5-[3-chloro-5-(trifluoromethyl)phenyl]-5-(trifluoromethyl)-4,5-dihydro-1,2-oxazol-3-yl]-2-methylphenyl)carbonyl]-3-(3,3,3-trifluoropropyl)imidazolidin-4-one] displayed an EC50 of no more than 0.1 µg/mL. `O=C(NN1CCCN(CC(F)(F)F)C1=O)c1ccc(C2=NOC(c3cc(Cl)cc(Cl)c3)(C(F)(F)F)C2)cc1C(F)(F)F` (stereo not drawn) [Compound 91, 4-[5-(3,5-dichlorophenyl)-5-(trifluoromethyl)-4,5-dihydro-1,2-oxazol-3-yl]-N-[2-oxo-3-(2,2,2-trifluoroethyl)-1,3-diazinan-1-yl]-2-(trifluoromethyl)benzamide]: the EC50 was no more than 1 µg/mL. As to `O=C1CN(C(=O)c2ccc(C3=NOC(c4cc(Cl)cc(Cl)c4)(C(F)(F)F)C3)cc2C(F)(F)F)CN1CC(F)(F)F` (stereo not drawn) [Compound 93, 1-([4-[5-(3,5-dichlorophenyl)-5-(trifluoromethyl)-4,5-dihydro-1,2-oxazol-3-yl]-2-(trifluoromethyl)phenyl]carbonyl)-3-(2,2,2-trifluoroethyl)imidazolidin-4-one], the EC50 is no more than 1 µg/mL. The same measure, in the same setting: the value for `CCCN1C(=O)CN(C(=O)c2ccc(C3=NOC(c4cc(Cl)cc(C(F)(F)F)c4)(C(F)(F)F)C3)cc2C(F)(F)F)CC1=O` (stereo not drawn) [Compound 95, 4-[(4-[5-[3-chloro-5-(trifluoromethyl)phenyl]-5-(trifluoromethyl)-4,5-dihydro-1,2-oxazol-3-yl]-2-(trifluoromethyl)phenyl)carbonyl]-1-propylpiperazine-2,6-dione] was no more than 10 µg/mL; that for `O=C(NN1CCCN(CC(F)(F)F)C1=O)c1ccc(C2=NOC(c3cc(C(F)(F)F)cc(C(F)(F)F)c3)(C(F)(F)F)C2)cc1C(F)(F)F` (stereo not drawn) [Compound 90, 4-[5-[3,5-bis(trifluoromethyl)phenyl]-5-(trifluoromethyl)-4,5-dihydro-1,2-oxazol-3-yl]-N-[2-oxo-3-(2,2,2-trifluoroethyl)-1,3-diazinan-1-yl]-2-(trifluoromethyl)benzamide] was no more than 1 µg/mL; that for `O=C(NN1CCCN(CC(F)(F)F)C1=O)c1ccc(C2=NOC(c3cc(Cl)cc(C(F)(F)F)c3)(C(F)(F)F)C2)cc1C(F)(F)F` (stereo not drawn) [Compound 97, 4-[5-[3-chloro-5-(trifluoromethyl)phenyl]-5-(trifluoromethyl)-4,5-dihydro-1,2-oxazol-3-yl]-N-[2-oxo-3-(2,2,2-trifluoroethyl)-1,3-diazinan-1-yl]-2-(trifluoromethyl)benzamide] was no more than 1 µg/mL. Same read-out and setting: with `O=C(c1ccc(C2=NOC(c3cc(Cl)cc(Cl)c3)(C(F)(F)F)C2)cc1C(F)(F)F)N1CC(=O)N(CC(F)(F)F)C(=O)C1` (stereo not drawn) [Compound 92, 4-([4-[5-(3,5-dichlorophenyl)-5-(trifluoromethyl)-4,5-dihydro-1,2-oxazol-3-yl]-2-(trifluoromethyl)phenyl]carbonyl)-1-(2,2,2-trifluoroethyl)piperazine-2,6-dione] the figure was no more than 10 µg/mL. Turning to `CCN1CCN(C(=O)c2ccc(C3=NOC(c4cc(Cl)cc(Cl)c4)(C(F)(F)F)C3)cc2C)C1=O` (stereo not drawn) [Compound 54], the EC50 is no more than 10 µg/mL.

`Cc1cc(C2=NOC(c3cc(Cl)c(F)c(Cl)c3)(C(F)(F)F)C2)ccc1C(=O)N1CC(=O)N(CCC(F)(F)F)C1` (stereo not drawn) [Compound 115, 1-([4-[5-(3,5-dichloro-4-fluorophenyl)-5-(trifluoromethyl)-4,5-dihydro-1,2-oxazol-3-yl]-2-methylphenyl]carbonyl)-3-(3,3,3-trifluoropropyl)imidazolidin-4-one] returned an EC50 of no more than 0.1 µg/mL.

Regarding `O=C1CN(C(=O)c2ccc(C3=NOC(c4cc(Cl)cc(C(F)(F)F)c4)(C(F)(F)F)C3)cc2C(F)(F)F)CN1CCC(F)(F)F` (stereo not drawn) [Compound 98, 1-[(4-[5-[3-chloro-5-(trifluoromethyl)phenyl]-5-(trifluoromethyl)-4,5-dihydro-1,2-oxazol-3-yl]-2-(trifluoromethyl)phenyl)carbonyl]-3-(3,3,3-trifluoropropyl)imidazolidin-4-one], the half-maximal effective concentration (EC50) was no more than 1 µg/mL. Still for that read-out and setting: the value for `O=C1CN(C(=O)c2ccc(C3=NOC(c4cc(Cl)cc(C(F)(F)F)c4)(C(F)(F)F)C3)cc2CC(F)(F)F)CN1CCC(F)(F)F` (stereo not drawn) [Compound 99, 1-[(4-[5-[3-chloro-5-(trifluoromethyl)phenyl]-5-(trifluoromethyl)-4,5-dihydro-1,2-oxazol-3-yl]-2-(2,2,2-trifluoroethyl)phenyl)carbonyl]-3-(3,3,3-trifluoropropyl)imidazolidin-4-one] was no more than 1 µg/mL; that for `O=C1CN(C(=O)c2ccc(C3=NOC(c4cc(Cl)cc(C(F)(F)F)c4)(C(F)(F)F)C3)cc2C(F)(F)F)CN1CC(F)(F)F` (stereo not drawn) [Compound 96, 1-[(4-[5-[3-chloro-5-(trifluoromethyl)phenyl]-5-(trifluoromethyl)-4,5-dihydro-1,2-oxazol-3-yl]-2-(trifluoromethyl)phenyl)carbonyl]-3-(2,2,2-trifluoroethyl)imidazolidin-4-one] was no more than 1 µg/mL. The compound `Cc1cc(C2=NOC(c3cc(Cl)cc(Cl)c3)(C(F)(F)F)C2)ccc1C(=O)NN1CCN(CC(F)(F)F)C1=O` (stereo not drawn) [Compound 67, 4-[5-(3,5-dichlorophenyl)-5-(trifluoromethyl)-4,5-dihydro-1,2-oxazol-3-yl]-2-methyl-N-[2-oxo-3-(2,2,2-trifluoroethyl)imidazolidin-1-yl]benzamide] yielded an EC50 of no more than 1 µg/mL.

The same experiment, now with this note: efficacy against fleas, method of Example 19; compounds with vs without carbonyl group in Ring D.
With `Cc1cc(C2=NOC(c3cc(Cl)cc(C(F)(F)F)c3)(C(F)(F)F)C2)ccc1C(=O)N1CC(=O)N(CCC(F)(F)F)C1` (stereo not drawn) [drawing 155], the “EC50 (ppm)” value is recorded as less than 0.1 ppm. On the same count and under the same terms, with `Cc1cc(C2=NOC(c3cc(Cl)cc(Cl)c3)(C(F)(F)F)C2)ccc1C(=O)N1CCNCC1` (stereo not drawn) [reference compound] the figure was 1-10 ppm; with `Cc1cc(C2=NOC(c3cc(Cl)cc(C(F)(F)F)c3)(C(F)(F)F)C2)ccc1C(=O)N1CCN(CCC(F)(F)F)C1` (stereo not drawn) [drawing 156, reference compound], 1-10 ppm. For the compound `Cc1cc(C2=NOC(c3cc(Cl)cc(Cl)c3)(C(F)(F)F)C2)ccc1C(=O)N1CC(=O)NC(=O)C1` (stereo not drawn), the “EC50 (ppm)” value was less than 0.1 ppm.

Consider `Cc1cc(C2=NOC(c3cc(Cl)cc(Cl)c3)(C(F)(F)F)C2)ccc1C(=O)N1CCN(CC(F)(F)F)CC1` (stereo not drawn) [reference compound], for which the “EC50 (ppm)” value was 10-20 ppm. Consider `Cc1cc(C2=NOC(c3cc(Cl)cc(Cl)c3)(C(F)(F)F)C2)ccc1C(=O)N1CC(=O)N(CC(F)(F)F)C(=O)C1` (stereo not drawn), for which the “EC50 (ppm)” value was less than 0.1 ppm.
